# Assays:
# [1] = Selectivity index, ratio of CC50 for mock infected human MT4 cells to IC50 for HIV1 IIIB infected human MT4 cells
# [2] = Stability in human liver microsome assessed as binding constant at 1 uM in presence of NADPH by LC/MS/MS analysis; settings: microsomes
# [3] = tested on: Human immunodeficiency virus 1; assay: Antiviral activity against HIV1 IIIB infected human MT4 cells assessed as protection against virus-induced cytopathic effect by MTT assay; assay type: functional, organism-based; settings: Human immunodeficiency virus 1, IIIB
# [4] = Cytotoxicity against mock infected human MT4 cells by MTT assay
# [5] = Stability in rat liver microsome assessed as binding constant at 1 uM in presence of NADPH by LC/MS/MS analysis; settings: microsomes
# [6] = Solubility of compound in PBS at pH 4.5 by HPLC-UV analysis; assay type: physicochemical
# [7] = Aqueous solubility of compound in PBS at pH 7 by HPLC-UV analysis
# [8] = in vitro; settings: rat, microsomes
# [9] = in vitro; settings: rat, microsomes; remark: listed apart in the source
# [10] = Oral bioavailability in Sprague-Dawley rat at 5 mg/kg by LCMS analysis; assay type: ADME, organism-based; settings: in vivo
# [11] = tested on: Human immunodeficiency virus 1; assay: Anti-viral activity against HIV1 harboring RT E138K mutant infected […] cells assessed as protection against virus-induced cytopathic effect by MTT assay; assay type: functional, organism-based; settings: Human immunodeficiency virus 1, MT4
# [12] = biological target: Human immunodeficiency virus type 1 reverse transcriptase (Human immunodeficiency virus 1, UniProt Q72547); assay: Inhibition of recombinant wild-type HIV1 p66/p51 reverse transcriptase assessed as inhibition of [3H][…] incorporation using poly (rA) as templates incubated for 40 mins by spectrofluorometer
# [13] = tested on: Human immunodeficiency virus 1; assay: Anti-viral activity against HIV1 harboring RT K103N mutant infected […] cells assessed as protection against virus-induced cytopathic effect by MTT assay; assay type: functional, organism-based; settings: Human immunodeficiency virus 1, MT4
# [14] = tested on: Human immunodeficiency virus 1; assay: Anti-viral activity against HIV1 harboring RT L100I mutant infected […] cells assessed as protection against virus-induced cytopathic effect by MTT assay; assay type: functional, organism-based; settings: Human immunodeficiency virus 1, MT4
# [15] = tested on: Human immunodeficiency virus 1; assay: Anti-viral activity against HIV1 harboring RT Y181C mutant infected […] cells assessed as protection against virus-induced cytopathic effect by MTT assay; assay type: functional, organism-based; settings: Human immunodeficiency virus 1, MT4
# [16] = tested on: Human immunodeficiency virus 1; assay: Anti-viral activity against HIV1 harboring RT Y188L mutant infected […] cells assessed as protection against virus-induced cytopathic effect by MTT assay; assay type: functional, organism-based; settings: Human immunodeficiency virus 1, MT4
# [17] = Aqueous solubility of compound in PBS at pH 7.4 by HPLC-UV analysis
Compound,selectivity ratio [1],EC50 [3],CC50 [4],EC50 [11],IC50 [12],EC50 [13],EC50 [14],EC50 [15],EC50 [16],further results
Cc1cc(-c2ccc(C#N)cc2)cc(C)c1Nc1ccnc(Nc2ccc(C#N)cc2)n1,2080,1 nM,2100 nM,–,–,–,–,–,–,K [2]: 0.047 min⁻¹; K [5]: 0.045 min⁻¹
O=c1c2nc([N+](=O)[O-])cn2ccn1Cc1ccccc1,–,–,–,–,–,–,–,–,–,solubility ([6]; buffer): Insoluble
Cl.N#Cc1ccc(Nc2nccc(Nc3c(F)cc(-c4ccc(C#N)cc4)cc3F)n2)cc1,–,–,–,–,–,–,–,–,–,solubility ([7]; PBS): 5.6 µg/mL
N#Cc1ccc(Nc2nccc(Nc3c(F)cc(-c4ccc(C#N)cc4)cc3F)n2)cc1,–,1 nM,> 294000 nM,–,–,–,–,–,–,K [2]: 0.0219 min⁻¹; microsomal CLint at 1 µM [8]: 15.7 µL/min/mg; half-life at 1 µM [9]: 44.3 min; K [5]: 0.0157 min⁻¹; bioavailability [10]: 44%
N#Cc1ccc(Nc2nccc(Nc3c(F)cc(-c4cncnc4)cc3F)n2)cc1,229,11.9 nM,2700 nM,137 nM,87 nM,326 nM,1790 nM,–,–,–
N#Cc1ccc(Nc2nccc(Nc3c(F)cc(-c4cccnc4)cc3F)n2)cc1,32700,7.4 nM,242000 nM,149 nM,58 nM,223 nM,583 nM,473 nM,–,–
N#Cc1ccc(Nc2nccc(Nc3c(F)cc(-c4cc(F)nc(F)c4)cc3F)n2)cc1,1970,5.6 nM,11000 nM,57 nM,13 nM,199 nM,898 nM,476 nM,–,–
N#Cc1ccc(Nc2nccc(Nc3c(F)cc(-c4ccnc(F)c4F)cc3F)n2)cc1,> 147000,2 nM,> 286000 nM,13.5 nM,8.3 nM,11.5 nM,63 nM,21.3 nM,1640 nM,–
COc1cc(-c2cc(F)c(Nc3ccnc(Nc4ccc(C#N)cc4)n3)c(F)c2)ccn1,501,13 nM,6700 nM,260 nM,30 nM,239 nM,645 nM,389 nM,–,–
N#Cc1ccc(Nc2nccc(Nc3c(F)cc(-c4ccncc4)cc3F)n2)cc1,–,–,–,4 nM,7.4 nM,8 nM,20.4 nM,15 nM,417 nM,–
Cc1cc(-c2cc(F)c(Nc3ccnc(Nc4ccc(C#N)cc4)n3)c(F)c2)ccn1,777,4.1 nM,3200 nM,52 nM,29 nM,77.7 nM,383 nM,144 nM,1090 nM,–
N#Cc1ccc(Nc2nccc(Nc3c(F)cc(-c4csc5ccccc45)cc3F)n2)cc1,132,124 nM,16000 nM,601 nM,59 nM,5790 nM,6450 nM,6210 nM,7480 nM,–
N#Cc1ccc(Nc2nccc(Nc3c(F)cc(-c4ccc(N)cc4)cc3F)n2)cc1,> 32900,9.2 nM,> 303000 nM,37 nM,37 nM,144 nM,561 nM,482 nM,1180 nM,–
N#Cc1ccc(Nc2nccc(Nc3c(F)cc(-c4ccsc4)cc3F)n2)cc1,14000,3.9 nM,55400 nM,14 nM,11 nM,171 nM,301 nM,212 nM,1040 nM,–
N#Cc1ccc(Nc2nccc(Nc3c(F)cc(-c4ccco4)cc3F)n2)cc1,7910,2.1 nM,16600 nM,10 nM,10 nM,71 nM,86 nM,84 nM,2170 nM,–
N#Cc1ccc(Nc2nccc(Nc3c(F)cc(-c4ccnc(-c5ccnc(Cl)c5)c4)cc3F)n2)cc1,3070,16.8 nM,51000 nM,160 nM,110 nM,176 nM,1150 nM,779 nM,–,–
N#Cc1ccc(Nc2nccc(Nc3c(F)cc(-c4cn[nH]c4)cc3F)n2)cc1,298,10 nM,3100 nM,101 nM,43 nM,251 nM,–,–,–,–
Cc1cc(C#Cc2ccccn2)cc(C)c1Oc1ccnc(Nc2ccc(C#N)cc2)n1,–,3 nM,–,–,–,–,–,–,–,–

Compound,selectivity ratio [1],EC50 [3],CC50 [4],EC50 [11],IC50 [12],EC50 [13],EC50 [14],EC50 [15],EC50 [16],further results
N#Cc1ccc(Nc2nccc(Nc3c(F)cc(-c4ccncc4F)cc3F)n2)cc1,2570,1.3 nM,3300 nM,2.3 nM,9.1 nM,1.9 nM,7.4 nM,7 nM,92 nM,–
N#Cc1ccc(Nc2nccc(Nc3c(F)cc(-c4ccnc(F)c4)cc3F)n2)cc1,1310,3.8 nM,5000 nM,14.3 nM,11 nM,42 nM,397 nM,80 nM,1260 nM,–
N#Cc1ccc(Nc2nccc(Nc3c(F)cc(-c4ccnc(C#N)c4F)cc3F)n2)cc1,> 143000,2 nM,> 282000 nM,11 nM,11 nM,14 nM,80 nM,42 nM,18300 nM,–
N#Cc1ccc(Nc2nccc(Nc3c(F)cc(-c4ccnc(Cl)c4Cl)cc3F)n2)cc1,3670,5.5 nM,20000 nM,39 nM,16 nM,48 nM,325 nM,73 nM,1640 nM,–
N#Cc1ccc(Nc2nccc(Nc3c(F)cc(-c4coc5ccccc45)cc3F)n2)cc1,1990,44 nM,87000 nM,335 nM,28 nM,1300 nM,3450 nM,2750 nM,6340 nM,–
Cc1cc(C#Cc2ccccc2)cc(C)c1Oc1ccnc(Nc2ccc(C#N)cc2)n1,–,38 nM,–,–,–,–,–,–,–,–
N#Cc1ccc(Nc2nccc(Nc3c(F)cc(-c4ccnc(Cl)c4)cc3F)n2)cc1,622,6.8 nM,4200 nM,61 nM,14 nM,101 nM,415 nM,254 nM,> 1540 nM,–
Cc1cc(-c2cc(F)c(Nc3ccnc(Nc4ccc(C#N)cc4)n3)c(F)c2)cc(C)n1,21,56 nM,1200 nM,–,336 nM,–,–,–,–,–
N#Cc1ccc(Nc2nccc(Nc3c(F)cc(-c4ccoc4)cc3F)n2)cc1,3290,3.2 nM,10600 nM,13 nM,10 nM,35 nM,100 nM,114 nM,2180 nM,–
N#Cc1ccc(Nc2nccc(Nc3c(F)cc(-c4cc(Cl)nc(Cl)c4)cc3F)n2)cc1,97,56 nM,5400 nM,311 nM,96 nM,1090 nM,–,–,–,–
O=c1c2nc([N+](=O)[O-])cn2ccn1Cc1cccnc1,–,–,–,–,–,–,–,–,–,"solubility ([6]; PBS, read-out: solubility): > 200 µM"
N#Cc1ccc(Nc2nccc(Nc3c(F)cc(-c4cccs4)cc3F)n2)cc1,> 74600,4.1 nM,> 308000 nM,11 nM,5.9 nM,102 nM,363 nM,136 nM,1130 nM,–
O=C1Nc2ccc(Cl)cc2[C@@](C#CC2CC2)(C(F)(F)F)O1 [EFAVIRENZ],–,–,> 6330 nM,7.5 nM,–,–,–,–,269 nM,–
Cc1cc(C#N)cc(C)c1Oc1nc(Nc2ccc(C#N)cc2)nc(N)c1Br [ETRAVIRINE],–,–,> 4600 nM,–,–,3.4 nM,–,–,29.3 nM,solubility ([17]; PBS): < 1 µg/mL; solubility ([7]; PBS): < 1 µg/mL
Cc1ccnc2c1NC(=O)c1cccnc1N2C1CC1 [NEVIRAPINE],–,–,> 15000 nM,288 nM,–,–,–,–,–,–
Cc1cc(/C=C/C#N)cc(C)c1Nc1ccnc(Nc2ccc(C#N)cc2)n1.Cl [RILPIVIRINE HYDROCHLORIDE],–,–,–,–,–,–,–,–,–,bioavailability [10]: 32%
Cc1cc(/C=C/C#N)cc(C)c1Nc1ccnc(Nc2ccc(C#N)cc2)n1 [RILPIVIRINE],–,–,–,–,–,–,–,–,–,solubility ([17]; buffer): < 1 µg/mL; solubility ([7]; buffer): < 1 µg/mL

# Source: ChEMBL document CHEMBL5032511, “Improving Druggability of Novel Diarylpyrimidine NNRTIs by a Fragment-Based Replacement Strategy: From Biphenyl-DAPYs to Heteroaromatic-Biphenyl-DAPYs” (J Med Chem, 2021)
